Laboratory results as given in patent US11141495B2, “MRI imaging of amyloid plaque using liposomes” (Texas Children's Hospital, priority 2014, dated 2021).
Where two headings read alike, the source gives them in different places.

Columns and labels:
[1] = biological target: T1, Aβ(1-40) fibrils (Homo sapiens, UniProt P05067); assay: Competitive binding assay to fibrils versus Chrysamine G; conditions: for % bound to fibrils in competition with Chrysamine-G: Chrysamine-G concentration of 1 μM, 20 μM fibrils, 1.0 μM test compound
T1 construct: Aβ(1-40) peptide (rPeptide, Bogart, Ga.); purchased rPeptide, Bogart, Ga
Procedure: (§1) Aβ fibrils were synthesized according to the method of Klunk et al. Ann Neurol, 2004; 55: 306-19, the entire teachings of which are incorporated herein by reference. Briefly, Aβ(1-40) peptide (rPeptide, Bogart, Ga.) was dissolved in phospho-buffered saline, pH 7.4 to a final concentration of 433 μg/mL (100 μM). The solution was stirred using a magnetic stir bar at 700 rpm for 4 h at room temperature to drive the formation of fibrils. The stock solution was aliquoted and stored at −80° C. for future use. The stock solutions were stirred thoroughly before removing aliquots for binding assays to maintain a homogenous suspension of fibrils. […]
(§2) Binding assay: The binding affinity of the compounds or compound-labeled liposomes with the amyloid fibrils was measured by following methods. Ligand-labeled liposomes, ligand stock solutions, and Chrysamine G fix competition assays were diluted with […] to 500 nM. Fibril stock solution was mixed with a stock solution of the compound or the compound-labeled liposomes in a 200 μL reaction mix to give a final concentration of fibrils (20 μM) with test compounds varying from 0.0625-20 μM. The binding mixture was incubated at room temperature for 1 h. Subsequently, the incubated binding mixture was centrifuged for 20 min at 16,400 rpm to separate the fibrils. The fibril precipitate was washed twice with Tris-HCl. Fluorescence was then measured in a Filter Max F-5 multi-mode plate reader (Molecular Devices, Sunnyvale, Calif.), using excitation and emission wavelengths of 405 nm and 535 nm, respectively. Competitive binding assays used 20 μM of fibrils, 1.0 μM test compounds and varying amounts of the non-fluorescent competitor, Chrysamine G and incubated for 1 h.

[2] = biological target: T1, Aβ(1-40) fibrils; assay: Binding assay of compounds or compound-labeled liposomes with amyloid fibrils (fluorescence of washed fibrils); conditions: for binding to fibrils, relative fluorescence unit: at a concentration of 1 μM
Procedure: as §1, §2
FIG. 7B is a graph showing fibril binding data and a calculated fit for estimation of the binding constant far Compound ii to fibrils at Kd=5.0 μM. FIG. 7C is a graph showing fibril binding data and a calculated fit for estimation of the binding constant for Compound iii to fibrils at Kd=5.0 μM. […] Binding to fibrils was quantified by measuring the fluorescence of the respective binding agent to washed fibrils. The data was fitted to a monolayer binding equation; Kd=1/Kb.

[3] = test system: cerebral amyloid angiopathy; assay: Fluorescent staining of aged dog frontal cortex tissue sections; conditions: 12.3 year old canine, 1 mM, 2 hours
Procedure: (§3) Compound iii solutions in PBS were incubated with frontal cortex tissue obtained from autopsy of an AD patient (the University of Kentucky Institutional Review Board approved the use of human tissue for the study; informed consent was obtained prior to autopsy) and a 12.3 year old canine. Both the human and canine tissues had Alzheimer's amyloid pathology confirmed from previous studies. 50 μm thick free-floating sections were mounted on slides and allowed to dry overnight. Slides were then washed in PBS (3×5 min) and incubated in Compound iii solution (1 mM) for 2 hours and then again washed 3×5 min in PBS, and coverslipped in Vectashield mounting medium with […] (Vector Laboratories, Burlingame, Calif.). Sections were imaged on an Olympus BX-51 microscope with a broadpass filter (Olympus Corporation of the Americas, Center Valley, Pa.).

[4] = test system: amyloid plaques; assay: Fluorescent staining of human AD frontal cortex tissue sections; conditions: frontal cortex of an AD autopsy case; 1 mM, 2 hours
Procedure: as §3

T1 sequence (P05067 672-711): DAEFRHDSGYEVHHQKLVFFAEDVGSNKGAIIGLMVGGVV

% bound to fibrils in competition with Chrysamine-G [1] | Kd ([2]; 20 μM fibrils, read-out: Kd, binding constant to fibrils (calculated fit, monolayer binding equation)) [µM] | binding to fibrils, relative fluorescence unit ([2]; 20 μM fibrils) | bound species displaced by Chrysamine G [1] [%] | Structure (SMILES) | labeling of cerebral amyloid angiopathy in aged dog brain tissue [3] | Kd [2] [µM] | staining of amyloid plaques in human brain tissue [4]
about 45% | 5 | 35 m RFU |  | CN(CCO)c1ccc(/C=C/c2ccncn2)cc1 [Compound ii, (E)-2-{methyl[4-(2-(pyrimidin-4-yl)vinyl)phenyl]amino}ethanol] |  |  | 
about 20% |  | less than 100 k RFU | > 80 | COc1cc(/C=C/c2ccc(O)cc2)ccc1/C=C/c1ccc(O)cc1 [MeXO4, reference compound] |  |  | 

Structure (SMILES) | % bound to fibrils in competition with Chrysamine-G [1] | Kd ([2]; 20 μM fibrils, read-out: Kd, binding constant to fibrils (calculated fit, monolayer binding equation)) [µM] | binding to fibrils, relative fluorescence unit ([2]; 20 μM fibrils) | bound species displaced by Chrysamine G [1] [%] | labeling of cerebral amyloid angiopathy in aged dog brain tissue [3] | Kd [2] [µM] | staining of amyloid plaques in human brain tissue [4]
OCCN(CCO)c1ccc(/C=C/c2ccncn2)cc1 [Compound iii, (E)-2,2′-{[4-(2-(pyrimidin-4-yl)vinyl)phenyl]azanediyl}diethanol] | about 55% |  | 400 k RFU |  | labels cerebral amyloid angiopathy | 5 | specifically stains amyloid plaques
